Patent US20150191519A1, “VECTORS ENCODING A PARALYTIC PEPTIDE” (Soricimed Biopharma Inc., priority 2002, published 2015)

Columns and labels:
[1] = system: human ovarian carcinoma cell line (OV 2008); assay: calcium ion uptake by FURA-loaded ovarian carcinoma cells (fluorescence); type: cell-based; settings: for calcium uptake by OV-2008 cell line: FURA fluorescence after calcium chloride 2.5 mM, calcium chloride 5.0 mM, FIG. 16
Experimental: A human ovarian carcinoma cell line (OV 2008) was grown in MegaCell supplemented (Sigma Aldrich Chemical Co.) with 3% fetal calf serum (v/v), L-glutamine (584 mg/500 mL), and antibiotics penicillin and streptomycin (50 ug/ml) at 37° C. and in a humidified 5% carbon dioxide atmosphere. After confluence, the cells were harvested by incubation with Trypsin EDTA solution low in calcium and magnesium Dulbecco phosphate buffered saline (DPBS) at 37° C. and gentle shaking to detach them from the culture flask surface. After centrifugation and washing in the calcium-depleted medium, cells were incubated with 5 uM FURA 2 AM for 60 minutes to internalize this calcium sensitive fluorophore. After centrifuging and washing twice with DPBS, cells were allowed to de-esterify the FURA 2 AM for 30 minutes at 37° C., activating the calcium-sensitive FURA. Cells were then incubated with aliquots of a solution of pure soricidin. Fluorescent analysis used excitation at 340 nm and emission at a wavelength of 510 nm. After recording the baseline fluorescence of the cells, a bolus of calcium chloride (to final concentration of 2.5 mM) was delivered to the cell suspension and the fluorescence remeasured. After recording the fluorescence, the sample was treated with a bolus of potassium chloride (final concentration 20 mM) to activate any voltage gated calcium channels. Finally, the cells were treated with another bolus of […] raising the calcium ion concentration to 5.0 mM. The control situation was no treatment with soricidin peptide but with identical other treatments.
This transient receptor potential (TRP) calcium channel was blocked by soricidin. FIG. 16 illustrates

insect nerve tissue = assay: calcium ion uptake by excised insect nerve tissue (FURA fluorescence); type: cell-based, flour beetle larvae (meal worms); settings: FIG. 17
Experimental: Central nerve pairs running along 5 body segments (including ganglia) were excised from flour beetle larvae (meal worms) and suspended in buffered invertebrate saline containing FURA 2 AM. After 60 minutes, the nerve tissue was removed from this solution, briefly washed in buffered saline and bathed with a solution of pure soricidin for 10 minutes. The nerve tissue was next immersed in a cuvette containing very low calcium ion concentration and a baseline fluorescence value recorded. A bolus of calcium chloride (to a final concentration of 5 mM) was added and, after 5 minutes, the fluorescence was determined. Finally, a bolus of potassium chloride was added to the preparation to a final concentration of 20 mM. The fluorescence was again determined. The control situation was exclusion of the soricidin, substituting instead a sham solution of buffered saline.

[2] = isoelectric pH by capillary isoelectric focusing; type: physicochemical; settings: migration time 33.9 min; calibrated with pI standard proteins
Experimental: The isoelectric pH of the shrew peptide soricidin was determined after calibration of the Beckmann-Coulter P/ACE MDQ Capillary Electrophoresis System with proteins of known isoelectric pH (2.75, 5.10, 5.90 and 9.45) and then co-isoelectric focusing of the standards with soricidin. […] The soricidin migration time (33.9 min) provided a pI of 4.20.

soricidin: 54 amino acid paralytic peptide isolated from shrew (Blarina brevicauda) submaxilary saliva gland, sequence of FIG. 1A (DCSQDCAACSILARPAELNTETCILECEGKLSSNDTEGGLCKEFLHPSKVDLPR; listed as Blarina brevicauda)
calcium uptake by OV-2008 cell line ([1]; KCl 20 mM): inhibits calcium uptake
calcium uptake by OV-2008 cell line ([1]; KCl 20 mM, listed as Soricidin): strongly inhibits calcium uptake
TRP calcium channel CaT1 (TRPV6) of ovarian carcinoma cells ([1]; OV-2008): blocked
small increase in calcium uptake in response to potassium ion challenge ([1]; OV-2008, KCl 20 mM): eliminated
dose dependence of inhibition of calcium uptake ([1]; OV-2008, increases in amount caused no additional inhibition): saturated
calcium uptake / calcium channels of insect neural tissue (insect nerve tissue): effectively blocks the general and voltage-gated calcium channels
calcium uptake / calcium channels of insect neural tissue (insect nerve tissue; listed as Soricidin): inhibits calcium uptake
increase in fluorescence (FURA/Calcium complex) less than in control (insect nerve tissue; nerve bathed in pure soricidin 10 minutes, calcium chloride and KCl 20 mM challenge): 92%
isoelectric pH (pI) [2]: 4.20
